One assay concerns the target Rat whole blood (Rattus norvegicus, UniProt P15384).
A further assay addresses T1, Kv1.6 (Homo sapiens, UniProt P17658).
T1 construct: expressed in transfected cells; host or cells: Chinese Hamster Ovary (CHO)
The experiment in a line: cell-based. As to conditions: for IC50: CHO cells, whole-cell patch clamp, read-out: Potency IC50 (nM) Kv1.6; for Selectivity Kv1.6/Kv1.3: ratio IC50[Kv1.6]/IC50[Kv1.3]. For orientation: Patch clamp records ionic current or voltage across a cell membrane.

Another assay concerns the target T2, Kv1.2 (Homo sapiens, UniProt P16389).
T2 construct: expressed in transfected cells; host or cells: Chinese Hamster Ovary (CHO)
Put plainly: cell-based. As to conditions: CHO cells, whole-cell patch clamp; read-out: Potency IC50 (nM) Kv1.2.

A further assay concerns the target T3, Kv1.3 (Homo sapiens, UniProt P22001).
T3 construct: expressed in transfected cells; host or cells: Chinese Hamster Ovary (CHO)
Put plainly: cell-based. As to conditions: CHO cells, whole-cell patch clamp; read-out: Potency IC50 (nM) Kv1.3.

Another assay addresses T4, Kv1.1 (Homo sapiens, UniProt Q09470).
T4 construct: expressed in transfected cells; host or cells: Chinese Hamster Ovary (CHO)
The experiment in a line: cell-based. The conditions noted are these: for IC50: CHO cells, whole-cell patch clamp, read-out: Potency IC50 (nM) Kv1.1; for Selectivity Kv1.1/Kv1.3: ratio IC50[Kv1.1]/IC50[Kv1.3].

Assay [1] deals with T5, human Kv1.3 voltage-gated K+ channel (Homo sapiens, UniProt P22001).
T5 construct: host or cells: CHO-DUKX
T5 sequence (P22001 whole entry): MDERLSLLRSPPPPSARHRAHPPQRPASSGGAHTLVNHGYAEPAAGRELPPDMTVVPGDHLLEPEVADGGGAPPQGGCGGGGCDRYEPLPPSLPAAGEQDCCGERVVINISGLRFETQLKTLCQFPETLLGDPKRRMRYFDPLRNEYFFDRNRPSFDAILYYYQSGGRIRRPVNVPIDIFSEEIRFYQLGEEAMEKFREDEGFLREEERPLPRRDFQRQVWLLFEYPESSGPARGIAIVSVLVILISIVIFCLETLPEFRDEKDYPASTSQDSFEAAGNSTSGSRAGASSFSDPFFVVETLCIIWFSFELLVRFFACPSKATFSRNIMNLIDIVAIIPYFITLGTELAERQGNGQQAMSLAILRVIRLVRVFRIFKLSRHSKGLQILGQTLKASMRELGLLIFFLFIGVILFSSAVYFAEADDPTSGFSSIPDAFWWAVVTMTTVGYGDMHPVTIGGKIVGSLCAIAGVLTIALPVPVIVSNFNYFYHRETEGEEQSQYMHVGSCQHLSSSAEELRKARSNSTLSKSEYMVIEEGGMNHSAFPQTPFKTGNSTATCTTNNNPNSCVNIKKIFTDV
The experiment in a line: cell-based. The conditions noted are these: inhibition of thallium flux, CHO-DUKX cells with human Kv1.3; read-out: IC50.

The record followed here is patent US11780893B2, “Kv1.3 blockers” (Zealand Pharma A/S, priority 2019, dated 2023).

Bridge positions count the residues as written; N and C are the ends. Square brackets hold non-standard residues; d marks the D form. Peptide text beside a SMILES is read from it. Nle = CCCC[C@H](N)C(=O)O

Chain of Rat whole blood (P15384 whole entry): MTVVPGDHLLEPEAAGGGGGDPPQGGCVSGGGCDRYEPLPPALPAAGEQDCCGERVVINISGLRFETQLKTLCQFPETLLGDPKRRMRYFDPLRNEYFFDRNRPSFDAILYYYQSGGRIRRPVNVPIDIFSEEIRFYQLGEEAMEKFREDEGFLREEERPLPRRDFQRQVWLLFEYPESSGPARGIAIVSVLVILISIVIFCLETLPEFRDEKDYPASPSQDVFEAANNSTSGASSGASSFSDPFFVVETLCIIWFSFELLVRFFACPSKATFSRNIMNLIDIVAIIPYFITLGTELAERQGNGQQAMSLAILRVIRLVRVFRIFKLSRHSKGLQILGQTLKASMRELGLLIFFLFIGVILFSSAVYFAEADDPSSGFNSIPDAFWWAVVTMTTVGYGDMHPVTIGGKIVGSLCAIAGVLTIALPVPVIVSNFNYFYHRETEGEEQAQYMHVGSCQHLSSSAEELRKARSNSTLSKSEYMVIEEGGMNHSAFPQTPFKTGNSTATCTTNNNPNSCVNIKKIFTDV
T1 sequence (P17658 whole entry): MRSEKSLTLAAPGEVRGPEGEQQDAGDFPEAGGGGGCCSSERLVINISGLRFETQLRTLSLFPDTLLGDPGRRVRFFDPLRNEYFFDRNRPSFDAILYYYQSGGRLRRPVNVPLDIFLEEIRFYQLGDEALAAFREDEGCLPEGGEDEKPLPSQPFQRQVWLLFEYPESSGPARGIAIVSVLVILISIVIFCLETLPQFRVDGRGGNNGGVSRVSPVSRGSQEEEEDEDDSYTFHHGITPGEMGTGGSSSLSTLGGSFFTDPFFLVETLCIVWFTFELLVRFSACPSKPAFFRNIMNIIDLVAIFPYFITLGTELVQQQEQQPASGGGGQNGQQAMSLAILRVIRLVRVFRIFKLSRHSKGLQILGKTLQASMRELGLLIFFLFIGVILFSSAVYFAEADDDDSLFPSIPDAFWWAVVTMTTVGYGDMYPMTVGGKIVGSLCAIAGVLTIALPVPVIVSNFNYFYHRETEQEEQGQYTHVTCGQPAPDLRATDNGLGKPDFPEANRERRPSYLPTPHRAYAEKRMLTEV
T3 sequence (P22001 whole entry): as the sequence (P22001 whole entry) above
T4 sequence (Q09470 whole entry): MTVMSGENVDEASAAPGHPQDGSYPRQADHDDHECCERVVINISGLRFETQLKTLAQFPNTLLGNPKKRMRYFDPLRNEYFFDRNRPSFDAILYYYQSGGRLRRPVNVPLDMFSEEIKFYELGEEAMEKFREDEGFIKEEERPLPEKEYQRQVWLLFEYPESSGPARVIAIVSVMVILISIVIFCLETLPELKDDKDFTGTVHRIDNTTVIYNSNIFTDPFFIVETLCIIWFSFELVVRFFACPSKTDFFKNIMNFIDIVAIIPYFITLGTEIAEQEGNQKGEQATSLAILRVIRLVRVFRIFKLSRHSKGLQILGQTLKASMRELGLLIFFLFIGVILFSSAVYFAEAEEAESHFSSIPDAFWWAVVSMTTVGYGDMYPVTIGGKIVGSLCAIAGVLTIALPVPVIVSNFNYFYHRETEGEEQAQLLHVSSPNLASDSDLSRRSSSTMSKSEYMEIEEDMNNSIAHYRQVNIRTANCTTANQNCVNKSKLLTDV
T2 sequence (P16389 whole entry): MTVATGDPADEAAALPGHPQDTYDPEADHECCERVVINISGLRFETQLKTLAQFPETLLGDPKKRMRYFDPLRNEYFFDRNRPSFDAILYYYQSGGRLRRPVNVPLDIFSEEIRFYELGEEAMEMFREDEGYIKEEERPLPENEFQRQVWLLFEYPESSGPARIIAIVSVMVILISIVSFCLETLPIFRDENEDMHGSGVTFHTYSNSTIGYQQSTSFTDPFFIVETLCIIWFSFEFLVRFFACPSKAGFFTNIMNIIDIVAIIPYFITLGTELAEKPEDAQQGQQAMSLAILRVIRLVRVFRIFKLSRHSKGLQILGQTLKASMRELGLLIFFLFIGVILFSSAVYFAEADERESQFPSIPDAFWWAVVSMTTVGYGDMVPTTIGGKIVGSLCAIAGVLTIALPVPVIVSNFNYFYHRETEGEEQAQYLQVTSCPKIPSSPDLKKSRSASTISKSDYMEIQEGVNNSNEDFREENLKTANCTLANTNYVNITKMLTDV

As usually defined, the IC50 is the concentration that inhibits the measured activity by half. On to `CCCC[C@H](NC(=O)[C@@H](N)CO)C(=O)N[C@@H](CC(=O)O)C(=O)N[C@@H](CCC(=O)O)C(=O)N[C@@H](CCCNC(=N)N)C(=O)N[C@H]1CSSC[C@@H]2NC(=O)[C@H](CCCCN)NC(=O)CNC(=O)[C@H](Cc3ccccc3)NC(=O)[C@H]([C@@H](C)CC)NC(=O)[C@H](CO)NC(=O)CNC(=O)[C@H]([C@@H](C)CC)NC(=O)[C@H](C)NC(=O)[C@H](CCCCN)NC(=O)[C@H](CC(C)C)NC(=O)[C@@H]3CSSC[C@@H](C(=O)N[C@@H](Cc4ccc(O)cc4)C(=O)N4CCC[C@H]4C(=O)N[C@@H](CCCNC(=N)N)C(N)=O)NC(=O)[C@H](CCCCN)NC(=O)[C@H](CSSC[C@H](NC(=O)[C@H](CCC(=O)O)NC(=O)[C@H](C(C)C)NC(=O)[C@H](CO)NC(=O)[C@H](C)NC(=O)[C@H](CO)NC1=O)C(=O)N[C@@H](CCCCN)C(=O)N[C@@H](CCC(N)=O)C(=O)N[C@@H](CCCCN)C(=O)N3)NC(=O)[C@H](CCCCN)NC(=O)[C@H](CCCCN)NC(=O)[C@H](CC(N)=O)NC(=O)[C@H](CCSC)NC2=O` [Compound 76] (H-S[Nle]DERCSASVECKQKCLKAIGSIFGKCMNKKCKCYPR-NH2; disulfide 6-27, 12-32, 16-34), for which the IC50 is at most 1 nM against Rat whole blood; above 3000 nM on Kv1.6; 122 nM on Kv1.2; 0.28 nM on Kv1.3; above 3000 nM at Kv1.1; 0.093 nM in assay [1]. Also, the “Selectivity Kv1.6/Kv1.3” value on Kv1.6 is above 10600. Besides, at Kv1.1, the “Selectivity Kv1.1/Kv1.3” value was above 10600.
Consider `CCCC[C@H](NC(=O)[C@@H]1CCCN1)C(=O)N[C@@H](CCC(=O)O)C(=O)N[C@@H](CCCC)C(=O)N[C@@H](CCCNC(=N)N)C(=O)N[C@H]1CSSC[C@@H]2NC(=O)[C@H](CCCCN)NC(=O)CNC(=O)[C@H](Cc3ccccc3)NC(=O)[C@H]([C@@H](C)CC)NC(=O)[C@H](CO)NC(=O)CNC(=O)[C@H]([C@@H](C)CC)NC(=O)[C@H](C)NC(=O)[C@H](C)NC(=O)[C@H](CC(C)C)NC(=O)[C@@H]3CSSC[C@@H](C(=O)N[C@@H](Cc4ccc(O)cc4)C(=O)N4CCC[C@H]4C(=O)N[C@@H](CCCNC(=N)N)C(N)=O)NC(=O)[C@H](CCCCN)NC(=O)[C@H](CSSC[C@H](NC(=O)[C@H](CCC(=O)O)NC(=O)[C@H](C(C)C)NC(=O)[C@H](CO)NC(=O)[C@H](C)NC(=O)[C@H](CO)NC1=O)C(=O)N[C@@H](CCCCN)C(=O)N[C@@H](CCC(N)=O)C(=O)N[C@@H](CCCCN)C(=O)N3)NC(=O)[C@H](CCCCN)NC(=O)[C@H](CCCCN)NC(=O)[C@H](CC(N)=O)NC(=O)[C@H](CCCC)NC2=O` [Compound 98] (H-P[Nle]E[Nle]RCSASVECKQKCLAAIGSIFGKC[Nle]NKKCKCYPR-NH2; disulfide 6-27, 12-32, 16-34), for which the IC50 is at most 1 nM against Rat whole blood; above 3000 nM at Kv1.6; 311 nM on Kv1.2; 0.18 nM on Kv1.3; above 3000 nM at Kv1.1; 0.11 nM in assay [1]. Besides, the “Selectivity Kv1.6/Kv1.3” value on Kv1.6 is above 16200. Also, the “Selectivity Kv1.1/Kv1.3” value at Kv1.1 is recorded as above 16200.
`CCCC[C@@H]1NC(=O)[C@@H]2CSSC[C@H](NC(=O)[C@H](CCCNC(=N)N)NC(=O)[C@H](CCCC)NC(=O)[C@H](CC(=O)O)NC(=O)[C@@H](N)CCCC)C(=O)N[C@@H](CO)C(=O)N[C@@H](C)C(=O)N[C@@H](CO)C(=O)N[C@@H](C(C)C)C(=O)N[C@@H](CCC(=O)O)C(=O)N[C@H]3CSSC[C@H](NC(=O)[C@H](CCCCN)NC(=O)[C@H](CCCCN)NC(=O)[C@H](CC(N)=O)NC1=O)C(=O)N[C@@H](CCCCN)C(=O)N[C@H](C(=O)N[C@@H](Cc1ccc(O)cc1)C(=O)N1CCC[C@H]1C(=O)N[C@@H](CCCNC(=N)N)C(=O)O)CSSC[C@H](NC(=O)[C@H](CCCCN)NC(=O)[C@H](CCC(N)=O)NC(=O)[C@H](CCCCN)NC3=O)C(=O)N[C@@H](CC(C)C)C(=O)N[C@@H](CCCCN)C(=O)N[C@@H](C)C(=O)N[C@@H]([C@@H](C)CC)C(=O)NCC(=O)N[C@@H](CO)C(=O)N[C@@H]([C@@H](C)CC)C(=O)N[C@@H](Cc1ccccc1)C(=O)NCC(=O)N[C@@H](CCCCN)C(=O)N2` [Compound 94] (H-[Nle]D[Nle]RCSASVECKQKCLKAIGSIFGKC[Nle]NKKCKCYPR-OH; disulfide 5-26, 11-31, 15-33): the IC50 against Rat whole blood is at most 1 nM; at Kv1.6, above 3000 nM; at Kv1.2 it was 1860 nM; on Kv1.3 it was 0.17 nM; at Kv1.1, above 3000 nM; in assay [1], 0.16 nM. For the same compound, the “Selectivity Kv1.6/Kv1.3” value on Kv1.6 is above 17800. In addition, the “Selectivity Kv1.1/Kv1.3” value at Kv1.1 was above 17800.
Take `CCCC[C@@H]1NC(=O)[C@@H]2CSSC[C@H](NC(=O)[C@H](CCCNC(=N)N)NC(=O)[C@H](CCCC)NC(=O)[C@H](CO)NC(=O)[C@H](CCCC)NC(=O)[C@@H](N)CC(N)=O)C(=O)N[C@@H](CO)C(=O)N[C@@H](C)C(=O)N[C@@H](CO)C(=O)N[C@@H](C(C)C)C(=O)N[C@@H](CCC(=O)O)C(=O)N[C@H]3CSSC[C@H](NC(=O)[C@H](CCCCN)NC(=O)[C@H](CCCCN)NC(=O)[C@H](CC(N)=O)NC1=O)C(=O)N[C@@H](CCCCN)C(=O)N[C@H](C(=O)N[C@@H](Cc1ccc(O)cc1)C(=O)N1CCC[C@H]1C(=O)N[C@@H](CCCNC(=N)N)C(N)=O)CSSC[C@H](NC(=O)[C@H](CCCCN)NC(=O)[C@H](CCC(N)=O)NC(=O)[C@H](CCCCN)NC3=O)C(=O)N[C@@H](CC(C)C)C(=O)N[C@@H](CCCCN)C(=O)N[C@@H](C)C(=O)N[C@@H]([C@@H](C)CC)C(=O)NCC(=O)N[C@@H](CO)C(=O)N[C@@H]([C@@H](C)CC)C(=O)N[C@@H](Cc1ccccc1)C(=O)NCC(=O)N[C@@H](CCCCN)C(=O)N2` [Compound 46] (H-N[Nle]S[Nle]RCSASVECKQKCLKAIGSIFGKC[Nle]NKKCKCYPR-NH2; disulfide 6-27, 12-32, 16-34): the IC50 was at most 1 nM on Rat whole blood; 1390 nM at Kv1.6; 302 nM on Kv1.2; 0.32 nM on Kv1.3; above 3000 nM at Kv1.1; 0.11 nM in assay [1]. The “Selectivity Kv1.1/Kv1.3” value at Kv1.1 was above 9400.
For the compound `CCCC[C@@H]1NC(=O)[C@@H]2CSSC[C@H](NC(=O)[C@H](CCCNC(=N)N)NC(=O)[C@H](CCCC)NC(=O)[C@H](CC(=O)O)NC(=O)[C@H](CCCC)NC(=O)[C@@H](N)CC(N)=O)C(=O)N[C@@H](CO)C(=O)N[C@@H](C)C(=O)N[C@@H](CO)C(=O)N[C@@H](C(C)C)C(=O)N[C@@H](CCC(=O)O)C(=O)N[C@H]3CSSC[C@H](NC(=O)[C@H](CCCCN)NC(=O)[C@H](CCCCN)NC(=O)[C@H](CC(N)=O)NC1=O)C(=O)N[C@@H](CCCCN)C(=O)N[C@H](C(=O)N[C@@H](Cc1ccc(O)cc1)C(=O)N1CCC[C@H]1C(=O)N[C@@H](CCCNC(=N)N)C(N)=O)CSSC[C@H](NC(=O)[C@H](CCCCN)NC(=O)[C@H](CCC(N)=O)NC(=O)[C@H](CCCCN)NC3=O)C(=O)N[C@@H](CCCCN)C(=O)N[C@@H](C)C(=O)N[C@@H]([C@@H](C)CC)C(=O)NCC(=O)N[C@@H](CO)C(=O)N[C@@H]([C@@H](C)CC)C(=O)N[C@@H](Cc1ccccc1)C(=O)NCC(=O)N[C@@H](CCCCN)C(=O)N2` [Compound 49] (H-N[Nle]D[Nle]RCSASVECKQKCKAIGSIFGKC[Nle]NKKCKCYPR-NH2; disulfide 6-26, 12-31, 16-33), the IC50 at Rat whole blood was at most 1 nM; on Kv1.6, 946 nM; at Kv1.2, 164 nM; on Kv1.3, 1.34 nM; on Kv1.1 it was above 3000 nM; in assay [1] it was 0.36 nM. The “Selectivity Kv1.1/Kv1.3” value on Kv1.1 is on record as above 2200.
